Patent US20090258030A1, “Materials and Methods for Improving Livestock Productivity” (priority 2006, published 2009)
Counter-ions that a name gives are not always drawn. Marks after values point to notes of the source that are not given here.

Legend:
[1] = Cysteamine used to fatten pigs (Example 8); type: in vivo; conditions: 190 ppm
[2] = Effect of cysteamine hydrochloride on productivity of pregnant pig sows (Example 1); type: in vivo, swine (D×L×M hybrid swine)
Text: A total of 14 heads of pregnant pig sow (which were the offspring of Duroc×Landrace×Meishan swine, also referred to herein as D×L×M hybrid swine) (84 days of pregnant) were divided into 2 groups: Control group (6) and Cysteamine group (8). The Control group was fed with basal diet. […]

[3] = Carcass composition/appearance of fattening pigs (Example 3); type: in vivo, swine; conditions: 150 g cysteamine hydrochloride per ton of feed
Procedure: 72 piglets were divided evenly into control group and Cysteamine group. The control group was treated with basal diet while the Cysteamine group was treated with basal diet added with 150 g cysteamine hydrochloride per ton of feed. Upon reaching the market weight of 85-90 kg, five animals from each treatment were slaughtered after fasting for one day. During slaughter, the animals were stunned with a stunning gun, bled, dehaired and eviscerated. The carcass was split […] and then chilled for 24 hours prior to fabrication. The slaughter and the chilled carcass weights were recorded. The chilled carcass weight expressed as percentage of the slaughter weight represents the dressed yield. The wholesale and retail cuts of each animals were weighed and recorded. The values were expressed as the percentage of the live weight and of the chilled carcass weight.
The area of the longissimus dorsi (LD) muscle was measured on the 12th rib of the right part of the carcasses. This was done by tracing the outline of the whole LD muscle on acetate paper and the area was measured with the use of a grading method.
There were no significant interaction effects.

[4] = Effect of cysteamine hydrochloride on weaning piglets: growth, FCR, diarrhea (Example 2); type: in vivo, swine (D×L×M weanling piglets)
Text: Total of 100 heads of unhealthy D×L×M weanling piglets (approx. 6.78 kg) were divided into 2 groups—Control group (50 heads) & Cysteamine group (50 heads). The Control group was fed with basal diet. […]

[5] = 150 g cysteamine hydrochloride per ton feed, after 49 days, vs control
[6] = late phase pregnant sow, dosage 500 g/T, from 84 days of pregnant to weaning
[7] = slaughter at market weight 85-90 kg
[8] = 90 g of cysteamine hydrochloride per ton of feed, after 30 days, vs control
[9] = D × L × M weanling piglets, 300 ppm, 30 days
[10] = D × L × M weanling piglets, 300 ppm, 30 days, 50 head

NCCS [Cysteamine Hydrochloride, cysteamine hydrochloride]
ADG ([1]; from 68 kg to market (35 days)): 1182 g | Age ([1]; from 68 kg to market (35 days)): 187 days | Ave. backfat thickness (cm) ([1]; from 68 kg to market (35 days)): 2.1 cm | Back fat thickness (neck) (cm) ([1]; from 68 kg to market (35 days)): 3.0 cm | Back fat thickness, Hip (cm) ([1]; from 68 kg to market (35 days)): 1.4 cm | Back fat thickness, Middle part (cm) ([1]; from 68 kg to market (35 days)): 1.8 cm | Body weight after slaughtering ([1]; from 68 kg to market (35 days)): 86 kg | Body weight before slaughtering ([1]; from 68 kg to market (35 days)): 106 kg | FCR ([1]; from 68 kg to market (35 days)): 2.71 | Feed consumption ([1]; from 68 kg to market (35 days)): 103 kg | Loin eye diameter (cm) ([1]; from 68 kg to market (35 days)): 33.0 cm | ADG: Improvement ([1]; vs control): 125 g | ADG: Improvement (%) ([1]; vs control): 11.79% | Age: Improvement ([1]; vs control): -5 days | Age: Improvement (%) ([1]; vs control): −2.60% | Ave. backfat thickness: Improvement ([1]; vs control): −0.5 cm | Ave. backfat thickness: Improvement (%) ([1]; vs control): −18.42% | Back fat thickness (neck): Improvement ([1]; vs control): −0.6 cm | Back fat thickness (neck): Improvement (%) ([1]; vs control): −16.67% | Back fat thickness, Hip: Improvement ([1]; vs control): −0.2 cm | Back fat thickness, Hip: Improvement (%) ([1]; vs control): −12.50% | Back fat thickness, Middle part: Improvement ([1]; vs control): −0.6 cm | Back fat thickness, Middle part: Improvement (%) ([1]; vs control): −25.00% | Body weight after slaughtering: Improvement ([1]; vs control): 2 kg | Body weight after slaughtering: Improvement (%) ([1]; vs control): 2.38% | Body weight before slaughtering: Improvement ([1]; vs control): 2 kg | Body weight before slaughtering: Improvement (%) ([1]; vs control): 1.92% | FCR: Improvement ([1]; vs control): −0.26 | FCR: Improvement (%) ([1]; vs control): −8.80% | Feed consumption: Improvement ([1]; vs control): -4 kg | Feed consumption: Improvement (%) ([1]; vs control): −3.74% | Loin eye diameter: Improvement ([1]; vs control): 2.5 cm | Loin eye diameter: Improvement (%) ([1]; vs control): 8.20% | increase in litter weight [2, 5]: 13.28% | increase in piglet born weight [2, 5]: 12.43% | increase in weaning weight [2, 5]: 8.00% | Body weight of weaned piglet (kg/head) ([2]; dosage 500 g/T, piglets weaning age 19 days): 6.21 kg/head | Birth weight per litter: Improvement ([2]; dosage 500 g/T, vs control): 2.50 kg | Birth weight per litter: Improvement (%) ([2]; dosage 500 g/T, vs control): 13.28% | Birth weight per piglet: Improvement ([2]; dosage 500 g/T, vs control): 0.23 kg/head | Birth weight per piglet: Improvement (%) ([2]; dosage 500 g/T, vs control): 12.43% | Body weight of weaned piglet: Improvement ([2]; dosage 500 g/T, vs control): 0.46 kg/head | Body weight of weaned piglet: Improvement (%) ([2]; dosage 500 g/T, vs control): 8.00% | Live piglet born rate: Improvement ([2]; dosage 500 g/T, vs control): 0.00% | Live piglet born rate: Improvement (%) ([2]; dosage 500 g/T, vs control): 0.00% | Birth weight per litter [2, 6]: 21.32 kg | Birth weight per piglet (kg/head) [2, 6]: 2.08 kg/head | Live piglet born per litter (head) [2, 6]: 10.29 head | Live piglet born rate (%) [2, 6]: 100.00% | Piglet born per litter (head) [2, 6]: 10.29 head | Total live piglet born (head) [2, 6]: 82 head | Total piglet born (head) [2, 6]: 82 head | backfat vs pigs fed diet without cysteamine hydrochloride [3]: significantly thinner | dressing percentage, loin eye area, and lean:fat ratio vs pigs fed without cysteamine hydrochloride [3]: no significant differences | loin cut and lean trimmings as a percent of the live-weight vs pigs fed without cysteamine hydrochloride [3]: significantly higher | Dressing % [3, 7]: 69.012% | Lean:Fat Ratio [3, 7]: 0.105 | Loin Eye Area (sq.cm) [3, 7]: 4.850 sq.cm | Backfat Thickness (cm) ([3]; slaughter at market weight 85-90 kg, P < 0.05 vs non-cysteamine HCl): 1.91^a cm | decrease in feed conversion rate (FCR) [4, 8]: 5.56% | improvement in diarrhea condition [4, 8]: 43.24% | increase in average daily weight gain (ADG) [4, 8]: 12.83% | ADG: Improvement ([4]; 300 ppm, 30 days, vs control): +48 g/head | ADG: Improvement (%) ([4]; 300 ppm, 30 days, vs control): 12.83% | Daily feed consumption: Improvement ([4]; 300 ppm, 30 days, vs control): +44.2 g/head | Diarrhea: Improvement (%) ([4]; 300 ppm, 30 days, vs control): −43.24% | FCR: Improvement ([4]; 300 ppm, 30 days, vs control): −0.1 | FCR: Improvement (%) ([4]; 300 ppm, 30 days, vs control): −5.56% | Final Wt.: Improvement ([4]; 300 ppm, 30 days, vs control): +1.5 kg/head | Total feed consumption: Improvement ([4]; 300 ppm, 30 days, vs control): +66.3 kg | Total final weight: Improvement ([4]; 300 ppm, 30 days, vs control): +75 kg | Total weight gain: Improvement ([4]; 300 ppm, 30 days, vs control): +72.5 kg | Weight gain: Improvement ([4]; 300 ppm, 30 days, vs control): +1.45 kg/head | ADG (g/head) [4, 9]: 422 g/head | Daily feed consumption (g/head) [4, 9]: 717.4 g/head | FCR [4, 9]: 1.70 | Final Wt. (kg/head) [4, 9]: 19.46 kg/head | Weight gain (kg/head) [4, 9]: 12.66 kg/head | Total feed consumption [4, 10]: 1076.1 kg | Total final weight [4, 10]: 973 kg | Total weight gain [4, 10]: 633 kg | Diarrhea (head) ([4]; D × L × M weanling piglets, 300 ppm, 30 days, of 50 head): 21 head
